Patent US9012166B2, “Method for assaying histone methylation enzyme activity” (Kyushu Institute of Technology, priority 2010, dated 2015)

Assays:
Type in all cases: biochemical
trypsin [1] = test: Mixing assay of substrate compound with peptidase (trypsin), AMC fluorescence; conditions: 1,000 μM BocLys(Me)nMCA and trypsin; λex 390 nm, λem 460 nm
Method: (§1) Distilled water was added to 10 μL of 2×HMT buffer (100 mM Tris-HCl (pH 8.5), 20 mM MgCl2, 40 mM KCl, 20 mM 2-mercaptoethanol, 500 mM sucrose) and 1 μL of a BocLysMCA solution to adjust the total volume to 20 μL. To the resultant solution was added 30 μL of a peptidase solution (20 mg/mL trypsin or 20 mAU/mL lysyl endopeptidase), which was then mixed and incubated at 37° C. for 15 minutes. Then, the fluorescence intensity of the solution was measured at an excitation wavelength (λex) of 390 nm and a fluorescence wavelength (λem) of 460 nm. The wavelength is a wavelength for detecting AMC (7-amino-4-methylcoumarin) released by the cleavage of the amide bond between Lys and MCA of BocLysMCA. The fluorescence intensity of AMC was similarly measured by performing a mixing assay by the same method as the above method except for using monomethylated BocLysMCA (i.e., “BocLys(Me)MCA”), dimethylated BocLysMCA (i.e., “BocLys(Me)2MCA”), or trimethylated BocLysMCA (i.e., “BocLys(Me)3MCA”) in place of BocLysMCA.

lysyl endopeptidase [2] = biological target: T1, lysyl endopeptidase (Achromobacter lyticus, UniProt P15636); test: Mixing assay of substrate compound with peptidase (lysyl endopeptidase), AMC fluorescence; conditions: 1,000 μM BocLys(Me)nMCA and lysyl endopeptidase; λex 390 nm, λem 460 nm
T1 sequence (P15636 206-473 limits assumed, species assumed): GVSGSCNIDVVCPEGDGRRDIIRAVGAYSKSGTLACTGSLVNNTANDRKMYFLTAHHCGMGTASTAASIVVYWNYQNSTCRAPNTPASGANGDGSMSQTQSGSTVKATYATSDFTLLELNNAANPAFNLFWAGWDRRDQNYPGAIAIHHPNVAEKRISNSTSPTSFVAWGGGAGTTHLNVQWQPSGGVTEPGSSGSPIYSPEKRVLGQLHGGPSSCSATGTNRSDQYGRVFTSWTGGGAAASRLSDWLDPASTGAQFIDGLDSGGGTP
Method: as §1

trypsin [3] = test: LC/MS analysis of reaction between substrate compound and trypsin; conditions: Example 3; 37° C., 15 minutes
Method: (§2) Distilled water was added to 10 μL of 2×HMT buffer (100 mM Tris-HCl (pH 8.5), 20 mM MgCl2, 40 mM KCl, 20 mM 2-mercaptoethanol, 500 mM sucrose) and 1 μL of a BocLysMCA solution to adjust the total volume to 20 μL. To the resultant solution was added 30 μL of a peptidase solution (20 mg/mL trypsin or 20 mAU/mL lysyl endopeptidase), which was then mixed and incubated at 37° C. for 15 minutes. Then, the solution was applied to a liquid chromatograph mass spectrometer (LC/MS) for analysis. Analysis was performed by the same method as that for the above analysis except for using monomethylated BocLysMCA (i.e., “BocLys(Me)MCA”), dimethylated BocLysMCA (i.e., “BocLys(Me)2MCA”), or trimethylated BocLysMCA (i.e., “BocLys(Me)3MCA”) in place of BocLysMCA. Analysis was also carried out by the same method except for using, in place of the above-described peptidase solution, an equal volume of distilled water.

lysyl endopeptidase [4] = biological target: T1, lysyl endopeptidase; test: LC/MS analysis of reaction between substrate compound and lysyl endopeptidase; conditions: Example 3; 37° C., 15 minutes
Method: as §2

G9a (GST-mG9a) = biological target: T2, G9a (GST-mG9a) (Mus musculus, UniProt Q9Z148); test: Assay for measuring histone methyltransferase activity using peptidyl MCA, inhibitor evaluation with G9a; conditions: Example 9; Ac-histone H3 (1-9)-MCA; AMC fluorescence λex 390 nm/λem 460 nm; FIG. 19; read-out: IC50 for G9a
T2 sequence (Q9Z148 1-1263): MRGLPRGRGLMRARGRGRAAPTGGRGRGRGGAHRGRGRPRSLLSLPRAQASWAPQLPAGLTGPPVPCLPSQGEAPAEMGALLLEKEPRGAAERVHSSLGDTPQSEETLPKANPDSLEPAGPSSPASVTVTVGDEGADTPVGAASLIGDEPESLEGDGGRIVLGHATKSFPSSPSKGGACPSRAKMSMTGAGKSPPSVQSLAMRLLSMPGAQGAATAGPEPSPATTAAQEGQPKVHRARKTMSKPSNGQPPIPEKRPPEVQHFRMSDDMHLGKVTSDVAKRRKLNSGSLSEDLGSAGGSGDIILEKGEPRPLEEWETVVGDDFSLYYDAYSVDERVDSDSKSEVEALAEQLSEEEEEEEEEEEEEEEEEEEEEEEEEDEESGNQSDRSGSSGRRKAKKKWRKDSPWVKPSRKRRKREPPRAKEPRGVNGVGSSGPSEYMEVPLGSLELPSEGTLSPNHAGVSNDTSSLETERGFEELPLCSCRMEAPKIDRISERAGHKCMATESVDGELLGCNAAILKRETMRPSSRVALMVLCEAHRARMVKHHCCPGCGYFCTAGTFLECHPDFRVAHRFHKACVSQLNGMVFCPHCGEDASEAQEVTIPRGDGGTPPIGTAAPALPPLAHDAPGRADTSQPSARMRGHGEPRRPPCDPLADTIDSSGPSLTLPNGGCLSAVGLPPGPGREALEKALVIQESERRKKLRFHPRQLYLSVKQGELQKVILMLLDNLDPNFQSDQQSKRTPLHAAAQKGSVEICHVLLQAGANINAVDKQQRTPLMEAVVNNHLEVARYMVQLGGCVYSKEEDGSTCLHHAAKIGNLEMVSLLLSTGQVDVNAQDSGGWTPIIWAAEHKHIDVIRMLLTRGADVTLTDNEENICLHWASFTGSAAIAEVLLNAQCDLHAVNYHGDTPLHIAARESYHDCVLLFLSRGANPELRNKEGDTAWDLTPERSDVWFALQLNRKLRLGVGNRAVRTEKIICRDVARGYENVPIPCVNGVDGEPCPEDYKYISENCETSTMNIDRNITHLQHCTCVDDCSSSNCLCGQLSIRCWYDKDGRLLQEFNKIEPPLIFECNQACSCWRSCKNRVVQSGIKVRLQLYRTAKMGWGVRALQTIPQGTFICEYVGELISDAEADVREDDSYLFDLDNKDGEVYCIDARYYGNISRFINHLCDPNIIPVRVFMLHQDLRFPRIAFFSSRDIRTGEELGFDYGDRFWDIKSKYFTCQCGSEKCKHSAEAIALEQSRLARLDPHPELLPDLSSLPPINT
Method: When G9a was adopted as a histone methyltransferase, the following method was used. 10 μL of 2×HMT buffer (100 mM Tris-HCl (pH 8.5), 20 mM MgCl2, 40 mM KCl, 20 mM 2-mercaptoethanol, 500 mM sucrose), 0.4 μL of a BSA solution (150 μg/mL), 2 μL of GST-mG9a (0, 0.5 μg/μL), 1 μL of gliotoxin (any of various concentrations) and 2.6 μL of distilled water were mixed and then incubated at room temperature for 1 hour. Then, 2 μL of SAM (10 mM) and 2 μL of a peptidyl MCA (Ac-histone H3 (1-9)-MCA) solution (0.6 mM) were added thereto, which was then incubated at 37° C. for 1 hour. Thereafter, 30 μL of a trypsin solution (20 mg/mL) was added thereto, followed by incubation at 37° C. for 15 minutes. Then, the fluorescence intensity of the solution was measured at an excitation wavelength (λex) of 390 nm and a fluorescence wavelength (λem) of 460 nm. The final concentration of GST-mG9a during the measurement of fluorescence intensity was 0.05 μg/μL. The results of the assay for measuring histone methyltransferase activity are shown in the middle panel of FIG. 18.
The rate of the inhibition of methylation by gliotoxin was calculated from the results in the left panel and the middle panel of FIG. 18. Specifically, the value (%) was calculated which was obtained by dividing “a value obtained by subtracting “the fluorescence intensity of AMC when peptidase was added but gliotoxin was not added” from “the fluorescence intensity of AMC when both peptidase and gliotoxin were added”” by “a value obtained by subtracting “the fluorescence intensity of AMC when peptidase was added but gliotoxin was not added” from “the fluorescence intensity of AMC when no peptidase or gliotoxin was added”” and multiplying the resultant value by 100. The rate (%) of the inhibition of methylation by gliotoxin is shown in the right panel of FIG. 18.
Specifically, the assay for measuring histone methyltransferase activity was carried out by the same method as the method using G9a […] in Example 8 except for using S-Adenosyl-L-homocysteine (SAH) in place of gliotoxin. SAH is a by-product of the methylation reaction and is known to inhibit histone methyltransferase in a negative feedback manner. […] The rate (%) of the inhibition of methylation by SAH was calculated from the results in the left panel of FIG. 19. The results are shown in the right panel of FIG. 19.
When G9a was adopted as a histone methyltransferase, the following method was used. […] Then, the fluorescence intensity of the solution was measured at an excitation wavelength (λex) of 330 nm and a fluorescence wavelength (λem) of 380 nm or at an excitation wavelength (λex) of 390 nm and a fluorescence wavelength (λem) of 460 nm. The final concentration of GST-mG9a during the measurement of fluorescence intensity was 0 μg/μL or 0.05 μg/μL.

IC50 (G9a (GST-mG9a)) | SMILES | fluorescence intensity of AMC when the fluorescence intensity for BocLysMCA was set to 100% (trypsin [1]) | fluorescence intensity of AMC when the fluorescence intensity for BocLysMCA was set to 100% (lysyl endopeptidase [2]) | hydrolysis by trypsin (LC/MS peaks) (trypsin [3]) | hydrolysis by lysyl endopeptidase (LC/MS peaks) (lysyl endopeptidase [4])
 | Cc1cc(=O)oc2cc(NC(=O)[C@H](CCCC[N+](C)(C)C)NC(=O)OC(C)(C)C)ccc12 [BocLys(Me)3MCA, trimethylated BocLysMCA] | 0.24% | 0.25% | almost no occurrence of hydrolysis | almost no occurrence of hydrolysis
 | CNCCCC[C@H](NC(=O)OC(C)(C)C)C(=O)Nc1ccc2c(C)cc(=O)oc2c1 [BocLys(Me)MCA, monomethylated BocLysMCA] | 2.7% | 0.096% | almost no occurrence of hydrolysis | almost no occurrence of hydrolysis
490 µM | Nc1ncnc2c1ncn2[C@@H]1O[C@H](CSCC[C@H](N)C(=O)O)[C@@H](O)[C@H]1O [SAH, S-Adenosyl-L-homocysteine] |  |  |  | 
 | Cc1cc(=O)oc2cc(NC(=O)[C@H](CCCCN(C)C)NC(=O)OC(C)(C)C)ccc12 [BocLys(Me)2MCA, dimethylated BocLysMCA] | 0.12% | 0.053% | almost no occurrence of hydrolysis | almost no occurrence of hydrolysis
